Assay results from the NIST ThermoML archive (doi:10.1021/je700254t).

Experiment: xn = mol fraction of the nth substance listed
Settings: 101.3 kPa, Liquid, x1 = 1

CCCO [propan-1-ol] + ClC(Cl)Cl
Settings | mass density [kg/m3]
288.15 K | 807.69
293.15 K | 803.703
298.15 K | 799.692
303.15 K | 795.65
308.15 K | 791.576
313.15 K | 787.466
